Reference: PMC9921564, “Novel Indole-Containing Hybrids Derived from Millepachine: Synthesis, Biological Evaluation and Antitumor Mechanism Study” (Molecules, 2023)

Key:
[1] = system: Caski (human epithelial cervical cancer cell line); assay: CCK-8 antiproliferative assay, Caski; type: cell-based; conditions: Ca-Ski, 48 h, read-out: IC50, Mean ± SE, Caski
[2] = system: MCF-7 (human breast carcinoma cell line); assay: CCK-8 antiproliferative assay, MCF-7; type: cell-based; conditions: MCF7, 48 h, read-out: IC50, Mean ± SE, MCF-7
[3] = system: C42B (human prostate cancer line); assay: CCK-8 antiproliferative assay, C42B; type: cell-based; conditions: 48 h, read-out: IC50, Mean ± SE, C42B
[4] = system: HepG2 (human liver carcinoma cell line); assay: CCK-8 antiproliferative assay, HepG2; type: cell-based; conditions: 48 h, read-out: IC50, Mean ± SE, HepG2
[5] = system: A549 (human non-small-cell-lung cancer cell line); assay: CCK-8 antiproliferative assay, A549; type: cell-based; conditions: 48 h, read-out: IC50, Mean ± SE, A549
[6] = system: five kinds of human cancer cell lines (A549, Caski, HepG2, C42B, MCF-7); assay: CCK-8 assay, panel of five human cancer cell lines; type: cell-based; conditions: 48 h, read-out: IC50 values, range over five human cancer cell lines
[7] = metabolic stability in human liver microsomes; type: in vitro ADME; conditions: for Remaining%: 37 °C, NADPH regenerating system
Procedure: Metabolic stability is one of the most important properties in drug development. In this study, commercially available human liver microsomes were used to evaluate the metabolic stability of compound 14b. After incubation with human liver microsomes at 37 °C in vitro for an indicated time in a buffer solution containing a NADPH regenerating system, the residue of 14b was monitored by HPLC. CA-4 was used as the reference compound. […] As well known, a short half-life means a low bioavailability in vivo and is required for frequent administration with a high dose, which might result in drug accumulation and may produce related toxicity.

SMILES	IC50 [1] [µM]	IC50 [2] [µM]	IC50 [3] [µM]	IC50 [4] [µM]	IC50 [5] [µM]	IC50 [6] [µM]	t1/2 [7] [h]	Remaining% ([7]; 30 min) [%]	Remaining% ([7]; 60 min) [%]	Remaining% ([7]; 90 min) [%]	Remaining% ([7]; 120 min) [%]
COc1cc(C(=O)/C=C/c2cn(C)c3ccccc23)cc2c1OC(C)(C)C=C2 [5b, (E)-1-(8-methoxy-2,2-dimethyl-2H-chromen-6-yl)-3-(1-methyl-1H-indol-3-yl)prop-2-en-1-one]	0.729 ± 0.033	0.35 ± 0.011	0.577 ± 0.021	0.461 ± 0.017	0.362 ± 0.017	–	–	–	–	–	–
COc1ccc(C(=O)c2cccc3c2ccn3C)c2c1C=CC(C)(C)O2 [11b, (5-methoxy-2,2-dimethyl-2H-chromen-8-yl)(1-methyl-1H-indol-4-yl)methanone]	0.516 ± 0.012	0.651 ± 0.024	0.455 ± 0.015	0.454 ± 0.021	0.208 ± 0.009	–	–	–	–	–	–
COc1cc(C(=O)c2ccc3c(ccn3C)c2)cc2c1OC(C)(C)C=C2 [21b, (8-methoxy-2,2-dimethyl-2H-chromen-6-yl)(1-methyl-1H-indol-5-yl)methanone]	0.106 ± 0.012	0.099 ± 0.031	0.107 ± 0.006	0.097 ± 0.031	0.082 ± 0.01	–	–	–	–	–	–
COc1ccc(C(=O)c2ccc3[nH]ccc3c2)c2c1C=CC(C)(C)O2 [14a, (1H-indol-5-yl)(5-methoxy-2,2-dimethyl-2H-chromen-8-yl)methanone]	0.086 ± 0.009	0.082 ± 0.011	0.089 ± 0.021	0.142 ± 0.014	0.072 ± 0.004	–	–	–	–	–	–
COc1cc(C(=O)c2ccc3[nH]ccc3c2)cc2c1OC(C)(C)C=C2 [21a, (1H-indol-5-yl)(8-methoxy-2,2-dimethyl-2H-chromen-6-yl)methanone]	0.211 ± 0.012	0.121 ± 0.021	0.209 ± 0.02	0.441 ± 0.071	0.105 ± 0.011	–	–	–	–	–	–
COc1ccc(/C=C/C(=O)c2ccc(OC)c3c2OC(C)(C)C=C3)cc1 [Millepachine]	6.71 ± 0.233	4.53 ± 0.338	3.18 ± 0.384	3.88 ± 0.244	2.57 ± 0.131	2.57 to 6.71	–	–	–	–	–
COc1ccc(C(=O)c2ccc(OC)c3c2OC(C)(C)C=C3)cc1 [Compd. A, reference compound]	0.892 ± 0.024	0.456 ± 0.021	0.526 ± 0.007	0.758 ± 0.017	0.226 ± 0.035	0.226 to 0.892	–	–	–	–	–
COc1cc(C(=O)c2cccc3[nH]ccc23)cc2c1OC(C)(C)C=C2 [19a, (1H-indol-4-yl)(8-methoxy-2,2-dimethyl-2H-chromen-6-yl)methanone]	2.311 ± 0.019	1.775 ± 0.004	2.41 ± 0.042	3.098 ± 0.021	1.32 ± 0.016	–	–	–	–	–	–
COc1ccc(C(=O)c2cccc3[nH]ccc23)c2c1C=CC(C)(C)O2 [compound 11a, (1H-indol-4-yl)(5-methoxy-2,2-dimethyl-2H-chromen-8-yl)methanone]	0.832 ± 0.011	0.816 ± 0.045	0.911 ± 0.034	0.998 ± 0.034	0.631 ± 0.018	–	–	–	–	–	–
COc1cc(C(=O)/C=C/c2c[nH]c3ccccc23)cc2c1OC(C)(C)C=C2 [compound 5a, (E)-3-(1H-indol-3-yl)-1-(8-methoxy-2,2-dimethyl-2H-chromen-6-yl)prop-2-en-1-one]	1.93 ± 0.035	1.553 ± 0.014	1.38 ± 0.021	0.963 ± 0.032	0.812 ± 0.022	–	–	–	–	–	–
COc1ccc(/C=C\c2cc(OC)c(OC)c(OC)c2)cc1O [CA-4, reference compound]	–	–	–	–	–	–	< 1	70.2	28.3	20.5	18.7
COc1cc(C(=O)c2cccc3c2ccn3C)cc2c1OC(C)(C)C=C2 [19b, (8-methoxy-2,2-dimethyl-2H-chromen-6-yl)(1-methyl-1H-indol-4-yl)methanone]	1.1 ± 0.032	1.02 ± 0.015	1.08 ± 0.034	0.898 ± 0.009	0.642 ± 0.081	–	–	–	–	–	–
